Each structure is given as a SMILES string. ± gives the expanded uncertainty stated by the source.

Consider 22 compounds from the NIST ThermoML archive (doi:10.1021/je020196d).

A short description of series [1]: refractive index (Na D-line) (dimensionless). To be noted: 293.15 K; 101.33 kPa; Liquid; Standard Abbe refractometry.
The conditions of series [2]: 293.15 K; 101.33 kPa; Liquid.
Series [3] can be described thus: activity coefficient (dimensionless); of the first substance listed, at infinite dilution; xn = mol fraction of the nth substance listed. Conditions: Liquid, x1 = 0.

`CCCCCCC` [heptane]: in series [1], the refractive index (usually the speed of light in vacuum divided by its phase velocity in the sample) amounted to 1.3878 ± 0.0007. Also, the mass density (commonly the mass of a sample divided by its volume) in series [2] came to 683.5 ± 5 kg/m3.
For the compound `CCCCCCCCCC` [decane] + OCCOCCOCCOCCO, the activity coefficient in series [3] (333.15 K, Chromatography) was 123 ± 5.8; in series [3] (353.15 K, Chromatography), 87.8 ± 4.1; in series [3] (363.15 K, Chromatography), 75.1 ± 3.5; in series [3] (373.1 K, Chromatography), 64.4 ± 3; in series [3] (383.15 K, Chromatography), 55.2 ± 2.6; in series [3] (393.15 K, Chromatography) it was 51.3 ± 2.4. The activity coefficient in series [3] (403.15 K, Chromatography) turned out to be 42.9 ± 2.
Turning to `CCc1ccccc1` [ethylbenzene] + OCCOCCOCCOCCO, the activity coefficient in series [3] (333.15 K, Chromatography) was found to be 6.39 ± 0.29; in series [3] (353.15 K, Chromatography), 5.63 ± 0.26; in series [3] (363.15 K, Chromatography) it was 5.31 ± 0.24; in series [3] (373.1 K, Chromatography), 5 ± 0.23; in series [3] (383.15 K, Chromatography) it was 4.73 ± 0.22; in series [3] (393.15 K, Chromatography), 4.58 ± 0.21. Further, in series [3] (403.15 K, Chromatography), the activity coefficient came to 4.35 ± 0.2.
For the compound `CCCCCCCCCC` [decane], the refractive index in series [1] is reported as 1.4113 ± 0.0007. Also, the mass density in series [2] came out at 730.2 ± 5 kg/m3.
For `CCc1ccccc1` [ethylbenzene], the refractive index in series [1] was 1.4955 ± 0.0007. The mass density in series [2] is recorded as 867.4 ± 5 kg/m3.
For `CCc1ccccc1` [ethylbenzene] + OCCOCCOCCO, the activity coefficient in series [3] (323.15 K, Chromatography) amounted to 10.9 ± 0.5; in series [3] (333.15 K, Chromatography), 10.3 ± 0.47; in series [3] (343.15 K, Chromatography) it was 9.73 ± 0.45; in series [3] (353.15 K, Chromatography) it was 9.1 ± 0.42; in series [3] (363.15 K, Chromatography) it was 8.72 ± 0.4; in series [3] (373.1 K, Chromatography) it was 8.39 ± 0.38. Besides, the activity coefficient in series [3] (383.15 K, Chromatography) was determined as 7.94 ± 0.36; in series [3] (393.15 K, Chromatography), 7.72 ± 0.35.
For the compound `CCCCCCCCC` [nonane] + OCCOCCOCCOCCO, the activity coefficient came to 92.3 ± 4.3 in series [3] (333.15 K, Chromatography); 64.7 ± 3 in series [3] (353.15 K, Chromatography); 57.4 ± 2.7 in series [3] (363.15 K, Chromatography); 49.3 ± 2.3 in series [3] (373.1 K, Chromatography); 42.9 ± 2 in series [3] (383.15 K, Chromatography); 39.7 ± 1.8 in series [3] (393.15 K, Chromatography). Moreover, the activity coefficient in series [3] (403.15 K, Chromatography) is 34.1 ± 1.6.
For the compound `CCCCCCCC` [octane] + OCCOCCOCCOCCO, the activity coefficient was determined as 68.1 ± 6.4 in series [3] (333.15 K); 49.5 ± 4.6 in series [3] (353.15 K); 43.2 ± 4 in series [3] (363.15 K); 37.5 ± 3.5 in series [3] (373.1 K); 32.4 ± 3 in series [3] (383.15 K); 31.4 ± 2.9 in series [3] (393.15 K). For the same compound, in series [3] (403.15 K), the activity coefficient was determined as 25.8 ± 2.4.
For the compound `CCCCCCCCCC` [decane] + OCCOCCOCCO, the activity coefficient in series [3] (323.15 K, Chromatography) was found to be 252 ± 12; in series [3] (333.15 K, Chromatography), 219 ± 10; in series [3] (343.15 K, Chromatography), 196 ± 9.3; in series [3] (353.15 K, Chromatography) it was 162 ± 7.6; in series [3] (363.15 K, Chromatography), 141 ± 6.6; in series [3] (373.1 K, Chromatography), 125 ± 5.9. Besides, the activity coefficient in series [3] (383.15 K, Chromatography) stood at 107 ± 5; in series [3] (393.15 K, Chromatography), 95.6 ± 4.5.
Turning to `CCCCCCC` [heptane] + OCCOCCOCCO, the activity coefficient in series [3] (323.15 K, Chromatography) was 93.3 ± 4.4; in series [3] (333.15 K, Chromatography), 82.7 ± 3.9; in series [3] (343.15 K, Chromatography), 71.9 ± 3.4; in series [3] (353.15 K, Chromatography), 62.7 ± 2.9; in series [3] (363.15 K, Chromatography), 55.3 ± 2.6; in series [3] (373.1 K, Chromatography), 50.2 ± 2.3. The activity coefficient in series [3] (383.15 K, Chromatography) amounted to 44.3 ± 2.1; in series [3] (393.15 K, Chromatography), 40.6 ± 1.9.
As to `CCCCCCCCC` [nonane], in series [1], the refractive index turned out to be 1.4057 ± 0.0007. For the same compound, the mass density in series [2] is listed as 717.8 ± 5 kg/m3.
For `OCCOCCOCCO` [triethylene glycol] the same measures were 1.4556 ± 0.0007 and 1127.8 ± 5 kg/m3.
As for `CCCCCCCC` [octane] + OCCOCCOCCO, the activity coefficient was 129 ± 6.1 in series [3] (323.15 K, Chromatography); 113 ± 5.3 in series [3] (333.15 K, Chromatography); 99.5 ± 4.7 in series [3] (343.15 K, Chromatography); 86.9 ± 4.1 in series [3] (353.15 K, Chromatography); 75.8 ± 3.5 in series [3] (363.15 K, Chromatography); 68.7 ± 3.2 in series [3] (373.1 K, Chromatography). Also, the activity coefficient in series [3] (383.15 K, Chromatography) turned out to be 60.5 ± 2.8; in series [3] (393.15 K, Chromatography) it was 56.7 ± 2.6.
With `CCCCCCCC` [octane], the refractive index in series [1] was found to be 1.3975 ± 0.0007. Besides, the mass density in series [2] was found to be 702.6 ± 5 kg/m3.
As for `Cc1ccccc1` [toluene], the refractive index in series [1] amounted to 1.4962 ± 0.0007. Also, the mass density in series [2] came to 866.7 ± 5 kg/m3.
On to `c1ccccc1` [benzene], for which the refractive index in series [1] is recorded as 1.5015 ± 0.0007. Moreover, the mass density in series [2] is 878.3 ± 5 kg/m3.
Take `Cc1ccccc1` [toluene] + OCCOCCOCCO: the activity coefficient in series [3] (323.15 K, Chromatography) was determined as 7.11 ± 0.33; in series [3] (333.15 K, Chromatography), 6.8 ± 0.31; in series [3] (343.15 K, Chromatography), 6.51 ± 0.3; in series [3] (353.15 K, Chromatography), 6.25 ± 0.29; in series [3] (363.15 K, Chromatography), 5.99 ± 0.27; in series [3] (373.1 K, Chromatography), 5.85 ± 0.27. The activity coefficient amounted to 5.56 ± 0.25 in series [3] (383.15 K, Chromatography) and 5.51 ± 0.25 in series [3] (393.15 K, Chromatography).
On to `c1ccccc1` [benzene] + OCCOCCOCCOCCO, for which the activity coefficient in series [3] (333.15 K, Chromatography) was determined as 2.99 ± 0.14; in series [3] (353.15 K, Chromatography), 2.73 ± 0.12; in series [3] (363.15 K, Chromatography), 2.65 ± 0.12; in series [3] (373.1 K, Chromatography), 2.5 ± 0.11; in series [3] (383.15 K, Chromatography), 2.41 ± 0.11; in series [3] (393.15 K, Chromatography) it was 2.37 ± 0.11. In addition, in series [3] (403.15 K, Chromatography), the activity coefficient came to 2.27 ± 0.1.
In the case of `c1ccccc1` [benzene] + OCCOCCOCCO, the activity coefficient in series [3] (323.15 K, Chromatography) was 4.62 ± 0.21; in series [3] (333.15 K, Chromatography), 4.38 ± 0.2; in series [3] (343.15 K, Chromatography) it was 4.26 ± 0.19; in series [3] (353.15 K, Chromatography) it was 4.1 ± 0.19; in series [3] (363.15 K, Chromatography), 3.97 ± 0.18; in series [3] (373.1 K, Chromatography), 3.92 ± 0.18. The activity coefficient in series [3] (383.15 K, Chromatography) was 3.82 ± 0.17; in series [3] (393.15 K, Chromatography), 3.75 ± 0.17.
As for `CCCCCCCCC` [nonane] + OCCOCCOCCO, the activity coefficient in series [3] (323.15 K, Chromatography) came to 183 ± 8.6; in series [3] (333.15 K, Chromatography), 156 ± 7.4; in series [3] (343.15 K, Chromatography), 140 ± 6.6; in series [3] (353.15 K, Chromatography), 119 ± 5.6; in series [3] (363.15 K, Chromatography), 103 ± 4.8; in series [3] (373.1 K, Chromatography), 93 ± 4.4. The activity coefficient in series [3] (383.15 K, Chromatography) worked out at 81.4 ± 3.8; in series [3] (393.15 K, Chromatography), 73.9 ± 3.5.
For `Cc1ccccc1` [toluene] + OCCOCCOCCOCCO, the activity coefficient in series [3] (333.15 K, Chromatography) came out at 4.5 ± 0.21; in series [3] (353.15 K, Chromatography) it was 4.02 ± 0.18; in series [3] (363.15 K, Chromatography), 3.85 ± 0.18; in series [3] (373.1 K, Chromatography), 3.62 ± 0.16; in series [3] (383.15 K, Chromatography) it was 3.46 ± 0.16; in series [3] (393.15 K, Chromatography), 3.37 ± 0.15. For the same compound, the activity coefficient in series [3] (403.15 K, Chromatography) stood at 3.21 ± 0.15.
On to `CCCCCCC` [heptane] + OCCOCCOCCOCCO, for which the activity coefficient in series [3] (333.15 K, Chromatography) turned out to be 50.2 ± 2.3; in series [3] (353.15 K, Chromatography) it was 37.6 ± 1.7; in series [3] (363.15 K, Chromatography), 32.1 ± 1.5; in series [3] (373.1 K, Chromatography) it was 29.8 ± 1.4; in series [3] (383.15 K, Chromatography), 26.1 ± 1.2; in series [3] (393.15 K, Chromatography) it was 23.1 ± 1.1. In addition, the activity coefficient in series [3] (403.15 K, Chromatography) was 20.8 ± 0.96.
